Laboratory results taken from US20250367330A1, “OPTICAL CLEARING ENABLED BY THE KRAMERS-KRONIG RELATION” (The Board of Trustees of the Leland Stanford Junior …, priority 2021, published 2025).
One block for each molecule: values may come before it.

Tests used:
[1] = Ellipsometry measurement of solution refractive index and molar n′ change β; type: physicochemical
Description: A Horiba UVISEL ellipsometer was used to measure the real and imaginary parts of the refractive index of solutions at different concentrations of specific dye molecules. For solution measurement, 5 mL of solution was added to a shallow glass petri-dish (35×10 mm, Corning Falcon). The solution covers the entire bottom of the petri-dish creating a flat, reflective air-liquid interface. The reflected light was measured at an angle of 69.85° and the refractive index of the solution was calculated using a single interface semi-infinite reflection model. For all the measurements, 0.2 s integration time was used for each wavelength.
Measurements of the Molar n′ Change, β
The molar n′ change, β, is defined and measured according to the following quantitative relationship between the n′ and c (i.e., the concentration) of an aqueous solution containing dissolved clearing agents:
[formula] • where nw′ is the real RI of pure water, c is the molar concentration (M) of the clearing agent, and β is its molar n′ change. Note that n′, nw′, and β all have wavelength dependence. According to eq. (6), by measuring the n′(λ) of the solutions with ellipsometry, one can obtain β(λ) by fitting n′(λ) with c to a linear relationship.

[2] = Screening of absorbing molecules for K-Klear by α, β and β/α spectra; type: physicochemical
Description: (FIG. 3A) The relation between average molar absorption a and average molar n′ change β in the wavelength range between 500 to 700 nm for different molecules. (FIG. 3B) The ratio between the molar n′ change and molar absorption (β/α) for different absorbing molecules. The “white window” indicates a potential clearing spectrum with sufficient Δn′ and minimal absorption. (FIGS. 3C-3D) Imaginary part n″ (FIG. 3C) and real part n′ (FIG. 3D) of the RI of Dye-4 solutions at different concentrations measured from ellipsometry.
In practice, the agent should display a large absorption coefficient in order to realize the large, required changes in n′. […] At the same time, the agent should have minimal absorption at the wavelength for imaging, thus calling for a single narrow absorption peak without any additional absorption at longer wavelengths. In addition to these purely optical requirements, the agents also need to display a high solubility and diffusivity in water as well as excellent biocompatibility to facilitate in vivo application.

[3] = UV-Vis absorption of dye solutions in water (molar absorption α, extinction coefficient); type: physicochemical; details: for absorption at wavelengths above 600 nm: aqueous solutions, b66: 1 mM to 1.0 M
Description: A Thermo Fisher Scientific Evolution 350 UV-Vis spectrophotometer was used to measure the transmission and absorption spectra of dye solutions, silica phantoms, and ex-vivo chicken breast tissues. For all the measurements, 0.2 s acquisition time was used for each wavelength.
For transmission measurements of dye solutions, 1 mm optical path quartz cuvettes (high precision, two polished sides, Orient Analytics) were used and the cells were washed with aqua regia (mixture of 36.5-38.0 w/w % HCl and 68.0-70.0 w/w % HNO3 with a volume ratio of 3:1), fully rinsed with water and dried before use. A reference spectrum was acquired with water alone, thus correcting any loss of light due to intrinsic water absorption and reflection at the air-quartz interfaces.

mouse scalp = assay: In vivo optical clearing of mouse scalp by topical gel, laser speckle imaging of cerebral vessels; set-up: species or system mice; details: gel containing 0.62 M dye, 785 nm
Description: Given the successful clearing of scattering phantoms and chicken breasts using this approach, the possibility to achieve clearing in live animals was next explored. Procedures were developed to circumvent the destructive procedures or the use of toxic chemicals commonly used in ex vivo tissue clearing methods. […] It was hypothesized that owing to the small molecular weight and sufficiently large diffusion coefficient of Dye-4 in tissue, it can be delivered topically to optically clear the skin, thus exposing underlying structures that are otherwise obscured by the skin (FIG. 7A). […] The opacity of the scalp always requires its removal for fluorescence imaging of neuron activity or laser speckle imaging of cerebral hemodynamics in the mouse brain. […]
(§1) Before each imaging experiment, the mice were weighed and anesthetized via intraperitoneal (i.p.) injection of a mixture of 16 mg/kg ketamine (Dechra Veterinary Products) and 0.2 mg/kg dexdomitor (Dexmedesed; Dechra Veterinary Products) by insulin syringes with a 30 G needle gauge. […] The hair over the mouse head was removed for the in-vivo fluorescence imaging at the mice head. The hair over the mouse hindlimbs was removed for in-vivo reflectance and fluorescence imaging at the hind limbs. […]

[4] = Imaging of 1951 USAF resolution target through 1-mm scattering phantoms; details: optimum K-Klear conditions
Description: To this end, the resolvable spatial frequencies of a 1951 US Air Force (USAF) resolution target were quantified when imaging it through 1-mm scattering phantoms with different Dye-4 concentrations (FIGS. 5A-5B; FIGS. 14A-15E; see Example 7 for preparation of the phantom). The scattering phantom is placed between the objective lens and the USAF target, which is back illuminated with a white lamp (FIG. 16).
The hydrogel-silica scatter phantom in FIGS. 5A-5M was prepared by mixing the silica nanoparticle suspension (1 μm, 10 mg mL^−1) with low melting temperature agarose and Dye-4 of different amounts. The final concentration of agarose was 6 mg mL^−1. […] The mixture was then heated in an oven at 70° C. for at least 10 min to facilitate the dissolution of agarose. A 400-μL suspension was pipetted and injected into the well of a 1-mm silicone isolator (Grace bio-labs, Bend, Oregon, USA) mounted on a coverslip (24×40×0.15 mm, Fisher Scientific). The top of the solution was then sealed by another coverslip (22×22×0.15 mm, Thermo Scientific, Waltham, Massachusetts, USA) and the phantom was left at room temperature for slow solidification. […]

[5] = EFSA conclusion; cited from earlier work
chicken breast tissue [6] = assay: Temporal evolution of transmittance during immersion, diffusion in chicken breast tissue
Description: (FIG. 19A) Temporal evolution of transmittance T at different wavelengths of a chicken breast tissue immersed in a 0.62 M solution of Dye-4. (FIG. 19B) Temporal evolution of normalized T at different wavelengths. T is normalized between 0 and 1 against minimum and maximum T for each wavelength. (FIG. 19C) Temporal evolution of normalized T averaged over measurements at all wavelengths in FIG. 19B, enabling the extraction of the diffusion constant by fitting the normalized T to
This tissue sample has a thickness of d=1.82 mm; therefore, the diffusion coefficient D of Dye-4 therein can be calculated as
For this reason, estimates of the diffusion rate of Dye-4 molecules can be made in chicken breast by tracking the temporal evolution of T during dye immersion (FIGS. 6F and 19A-19C). […] Using a dilute solution to achieve the same Δn′ and clearing effect benefits from a low viscosity of the clearing agent, thus promoting its diffusion kinetics.
For transmission measurements of chicken breast tissue, the tissue sample was first mounted on a microscope slide (precleaned, 12-550-15, Fisher Scientific), which was placed in the light path of the UV-Vis spectrometer to ensure that the entire incident beam is blocked by the tissue. For time-dependent transmission measurement, the tissue was cut to fit into a 1 cm optical path plastic cuvette (acrylic, 14-955-126, Fisher Scientific) while having sufficient area to completely block the incident light. 3 mL of Dye-4 solution was then slowly added to fully immerse the chicken breast tissue, before the cuvette was sealed by parafilm (Bemis Company, Inc., Neenah, Wisconsin, USA) to minimize water evaporation. The temperature of the cuvette was controlled between 25 and 30° C. during measurements.
The thickness of the tissue was measured by sandwiching the tissue between two coverslips (22×22×0.15 mm, Thermal Scientific) using a digital caliper (Mitutoyo). The transmission spectra of the tissue were measured by attaching the chicken breast tissue on a microscope slide (precleaned, Fisher Scientific).

mouse hindlimb skin = assay: In vivo optical clearing of mouse hindlimb skin by topical gel, SHG sarcomere imaging; set-up: species or system mice; details: gel containing 0.62 M dye topically
Description: Sarcomeres, basic contractile units of skeletal and cardiac muscles, were chosen as the targets for imaging owing to their central roles in muscle functions and implications in neuromuscular diseases (e.g., spinal muscular atrophy). Existing in vivo sarcomere imaging methods require the invasive implantation of microendoscopes inside the muscle tissue for imaging the second-harmonic generation (SHG) signals from myosin rods in the sarcomere. It was hypothesized that the need for an invasively implanted microendoscope can be alleviated by applying the K-Klear method to reduce the scattering in the skin. […] This average periodicity value between SHG-generating myosin rods agrees with the reported sarcomere lengths measured via an implanted microendoscope, thus confirming the ability of K-Klear to resolve microscopic features through cleared tissue. […]
as §1

chicken breast tissue [7] = assay: Ex vivo K-Klear of chicken breast tissue, transmittance and attenuation coefficient; details: immersion in 0.62 M solution, beyond 600 nm
Description: To gradually increase the n′ of the aqueous components in chicken breast, the tissue slices were sequentially immersed in solutions containing an increasing concentration of Dye-4 (FIG. 6A; see Example 7).
To verify this point, the Dye-4 concentration was varied in the last immersion step and measure T before and after dye immersion (FIGS. 6C and 18).
For transmission measurements of chicken breast tissue, the tissue sample was first mounted on a microscope slide (precleaned, 12-550-15, Fisher Scientific), which was placed in the light path of the UV-Vis spectrometer to ensure that the entire incident beam is blocked by the tissue. For time-dependent transmission measurement, the tissue was cut to fit into a 1 cm optical path plastic cuvette (acrylic, 14-955-126, Fisher Scientific) while having sufficient area to completely block the incident light. 3 mL of Dye-4 solution was then slowly added to fully immerse the chicken breast tissue, before the cuvette was sealed by parafilm (Bemis Company, Inc., Neenah, Wisconsin, USA) to minimize water evaporation. […]
The thickness of the tissue was measured by sandwiching the tissue between two coverslips (22×22×0.15 mm, Thermal Scientific) using a digital caliper (Mitutoyo). The transmission spectra of the tissue were measured by attaching the chicken breast tissue on a microscope slide (precleaned, Fisher Scientific). […]

[8] = when used as a clearing agent, reported; cited from earlier work
[9] = wavelength 600 nm, aqueous solution

Structure (SMILES): Cc1cc(=O)n(-c2ccccc2)n1C [Antipyrine, reference compound]
Molar n′ change β [1, 9]: 0.037 ± 0.003 M⁻¹

Structure (SMILES): CC1(C)C(/C=C/C2=C(Cl)C(=C/C=C3\N(CCCCS(=O)(=O)[O-])c4ccccc4C3(C)C)/CCC2)=[N+](CCCCS(=O)(=O)[O-])c2ccccc21.[Na+] [Dye-21, Sodium 4-[2-[2-[2-chloro-3-[2-[3,3-dimethyl-1-(4-sulfonato-butyl)indol-1-ium-2-yl]vinyl]cyclohex-2-en-1-ylidene]ethylidene]-3,3-dimethyl-indolin-1-yl]butane-1-sulfonate]
potential for clearing from β/α spectrum ([2]; longer wavelengths / NIR spectrum): greatest potential

Structure (SMILES): [Cl-].[Na+] [Sodium chloride, reference compound]
Molar n′ change β ([1]; wavelength 589 nm): 0.00094 M⁻¹

Structure (SMILES): O=C([O-])c1nn(-c2ccc(S(=O)(=O)[O-])cc2)c(O)c1/N=N/c1ccc(S(=O)(=O)[O-])cc1.[Na+].[Na+].[Na+] [Dye-4, Trisodium 5-hydroxy-1-(4-sulfonato-phenyl)-4-[(E)-(4-sulfonato-phenyl)diazenyl]-1H-pyrazole-3-carboxylate]
laser speckle image through intact scalp after topical application (mouse scalp): clearly reveals vascular structures representative of cerebral vessels | resolvable spatial frequency through 1-mm scattering phantom [4]: up to 228.1 lp mm^−1 | absorption at wavelengths above 600 nm [3]: minimally absorbing | absorption at wavelengths above 600 nm ([3]; listed as tartrazine): do not absorb | peak absorption wavelength ([3]; dissolved in water): 428 nm | β among candidates while maintaining low α ([2]; visible spectrum of 500-700 nm, 21 candidates): highest | dose with no adverse effects or systemic toxicity [5]: up to 2 g per kg of body weight | time constant τ of normalized transmittance (chicken breast tissue [6]; 0.62 M solution, tissue thickness 1.82 mm): 85.0 ± 1.2 min | time until transmission changes saturate (chicken breast tissue [6]; 2-mm-thick chicken breast, 0.62 M solution): 2 to 3 h | diffusion coefficient (chicken breast tissue [6]; in chicken breast tissue, clearing solution): 0.66×10^−6 cm^2 s^−1 | characteristic periodicity (sarcomere length) identified through the skin window (mouse hindlimb skin): 2.60±0.28 μm | depth at which sarcomere structures are identified through the skin (mouse hindlimb skin; 1040 nm): > 200 μm | β higher than that of molecules commonly used to raise the n′ of water [1]: 2-3 orders of magnitude | efficiency in raising the n′ of water relative to glycerol on a per molar basis ([1]; at 600 nm): 11 × | n′ of solution reachable ([1]; at a soluble concentration, ellipsometry): up to 1.49 | Molar n′ change β ([1]; wavelength 500 nm, aqueous solution): 0.198 ± 0.005 M⁻¹ | Molar n′ change β [1, 9]: 0.143 ± 0.004 M⁻¹ | Molar n′ change β ([1]; wavelength 700 nm, aqueous solution): 0.128 ± 0.004 M⁻¹ | Molar n′ change β ([1]; wavelength 800 nm, aqueous solution): 0.130 ± 0.008 M⁻¹ | normalized attenuation coefficient relative to original tissue (chicken breast tissue [7]): approximately 40%

The next lines start with results.

molar absorption coefficient α [3]: 0.012 M⁻¹ | concentration needed to raise the baseline n′ of water to match that of lipids [1]: 11.6 M | Molar n′ change β ([1]; in the visible spectrum): 0.0129 M⁻¹ | Molar n′ change β ([1]; wavelength 589.6 nm): 0.0129 M⁻¹
Structure (SMILES): OCC(O)CO [Glycerol, reference compound]

Molar n′ change β ([1]; wavelength 589.6 nm): 0.0462 M⁻¹
Structure (SMILES): OC[C@H]1O[C@@](CO)(O[C@H]2O[C@H](CO)[C@@H](O)[C@H](O)[C@H]2O)[C@@H](O)[C@@H]1O [Sucrose, reference compound]
required immersion time to achieve the same n′ increase (chicken breast tissue [6]; chicken breast): 24 h

Molar n′ change β ([1]; wavelength 589.6 nm): 0.0084 M⁻¹
Structure (SMILES): CC(O)CO (stereo not shown) [Propylene glycol, reference compound]
diffusion coefficient [8]: 0.021×10^−6 cm^2 s^−1
